Experimental data published in US9995734B2, “Human T cell line assay for evaluating the immunologic identity of glatiramer acetate preparations” (Mylan Inc., priority 2013, dated 2018).
Several values for one entry are separate records, joined by “and”; a condition that tells them apart may be missing. Equal values may be shown once.

Legend:
Format in all cases: cell-based, human
Donor 3 GMA T-Cell Lines = experiment: ATP proliferation assay (CellTiter Glo), Donor 3 GMA T-cell lines, incl. reactivity to non-canonical GA peptides
Donor 3 COP T-Cell Lines = experiment: ATP proliferation assay (CellTiter Glo), Donor 3 COP T-cell lines, incl. reactivity to non-canonical GA peptides; conditions: for Non-Canonical Peptide Non-Reactivity: proliferation <2 times no antigen control
Donor 4 COP T-Cell Lines = experiment: ATP proliferation assay (CellTiter Glo), Donor 4 COP T-cell lines, incl. reactivity to non-canonical GA peptides; conditions: for Non-Canonical Peptide Non-Reactivity: proliferation <2 times no antigen control; for Proliferation (luminescent ATP assay), Mean: T-cell line 205-1F4, Day 71, autologous B-LCL

poly (Glu-Ala-Tyr; 6:3:1) [GAT 631]
Proliferation (luminescent ATP assay), Mean (Donor 3 GMA T-Cell Lines; T-cell line 165-F10G, 30 μg/mL antigen, Day 50 of culturing, No Antigen Value 3752): 3794 RLU
Proliferation (luminescent ATP assay), Mean (Donor 3 GMA T-Cell Lines; T-cell line 165-H11G, 1 μg/mL antigen, Day 50 of culturing, No Antigen Value 1485): 2413 RLU
Proliferation (luminescent ATP assay), Mean (Donor 3 GMA T-Cell Lines; T-cell line 165-H11G, 1.25 μg/mL antigen, autologous B-LCL): 43 RLU
Proliferation (luminescent ATP assay), Mean (Donor 3 GMA T-Cell Lines; T-cell line 165-H11G, 2.5 μg/mL antigen, autologous B-LCL): 290 RLU
Proliferation (luminescent ATP assay), Mean (Donor 3 GMA T-Cell Lines; T-cell line 165-H11G, 3 μg/mL antigen, Day 50 of culturing, No Antigen Value 1485): 2969 RLU
Proliferation (luminescent ATP assay), Mean (Donor 3 GMA T-Cell Lines; T-cell line 165-H11G, 5 μg/mL antigen, autologous B-LCL): 297 RLU
Proliferation (luminescent ATP assay), Mean (Donor 3 GMA T-Cell Lines; T-cell line 165-H11G, 10 μg/mL antigen, Day 50 of culturing, No Antigen Value 1485): 2995 RLU
Proliferation (luminescent ATP assay), Mean (Donor 3 GMA T-Cell Lines; T-cell line 165-H11G, 10 μg/mL antigen, autologous B-LCL): 305 RLU
Proliferation (luminescent ATP assay), Mean (Donor 3 GMA T-Cell Lines; T-cell line 165-H11G, 30 μg/mL antigen, Day 50 of culturing, No Antigen Value 1485): 3115 RLU
Non-Canonical Peptide Non-Reactivity (Donor 3 COP T-Cell Lines; 165-B6C): GAT 631
Non-Canonical Peptide Non-Reactivity (Donor 3 COP T-Cell Lines; 165-C4C): GAT 631
Non-Canonical Peptide Non-Reactivity (Donor 3 COP T-Cell Lines; 165-C7C): GAT 631
proliferation response to non-canonical peptides (Donor 3 COP T-Cell Lines; 165-E3C, separate experiment): did not react
Non-Canonical Peptide Non-Reactivity (Donor 3 COP T-Cell Lines; 165-F3C): GAT 631
Non-Canonical Peptide Non-Reactivity (Donor 3 COP T-Cell Lines; 165-F6C): GAT 631
Non-Canonical Peptide Non-Reactivity (Donor 3 COP T-Cell Lines; 165-U3C (so in the source)): GAT 631
Nonreactive T-Cell Line (Donor 3 COP T-Cell Lines; Donor 3 COP lines, stimulation with the non-canonical GA peptide): 165-B6C (Donor 3) and 165-C4C (Donor 3) and 165-C7C (Donor 3) and 165-E3C (Donor 3) and 165-F3C (Donor 3) and 165-F6C (Donor 3)
Proliferation (luminescent ATP assay), Mean (Donor 3 COP T-Cell Lines; T-cell line 165-C4C, 1 μg/mL antigen, Day 66 of culture, 0 μg/mL 1881): 2489
Proliferation (luminescent ATP assay), Mean (Donor 3 COP T-Cell Lines; T-cell line 165-C4C, 3 μg/mL antigen, Day 66 of culture, 0 μg/mL 1881): 2687
Proliferation (luminescent ATP assay), Mean (Donor 3 COP T-Cell Lines; T-cell line 165-C4C, 10 μg/mL antigen, Day 66 of culture, 0 μg/mL 1881): 2682
Proliferation (luminescent ATP assay), Mean (Donor 3 COP T-Cell Lines; T-cell line 165-C7C, 1.25 μg/mL antigen, autologous B-LCL): 232 RLU
Proliferation (luminescent ATP assay), Mean (Donor 3 COP T-Cell Lines; T-cell line 165-C7C, 2.5 μg/mL antigen, autologous B-LCL): 204 RLU
Proliferation (luminescent ATP assay), Mean (Donor 3 COP T-Cell Lines; T-cell line 165-C7C, 5 μg/mL antigen, autologous B-LCL): 200 RLU
Proliferation (luminescent ATP assay), Mean (Donor 3 COP T-Cell Lines; T-cell line 165-C7C, 10 μg/mL antigen, autologous B-LCL): 184 RLU
Proliferation (luminescent ATP assay), Mean (Donor 3 COP T-Cell Lines; T-cell line 165-F3C, 1 μg/mL antigen, Day 77 of culture, 0 μg/mL 1563): 2389
Proliferation (luminescent ATP assay), Mean (Donor 3 COP T-Cell Lines; T-cell line 165-F3C, 3 μg/mL antigen, Day 77 of culture, 0 μg/mL 1563): 2249
Proliferation (luminescent ATP assay), Mean (Donor 3 COP T-Cell Lines; T-cell line 165-F3C, 10 μg/mL antigen, Day 77 of culture, 0 μg/mL 1563): 2391
Proliferation (luminescent ATP assay), Mean (Donor 3 COP T-Cell Lines; T-cell line 165-F6C, 1.25 μg/mL antigen, Day 76 of culture, No Antigen value 517): 516
Proliferation (luminescent ATP assay), Mean (Donor 3 COP T-Cell Lines; T-cell line 165-F6C, 2.5 μg/mL antigen, Day 76 of culture, No Antigen value 517): 479
Proliferation (luminescent ATP assay), Mean (Donor 3 COP T-Cell Lines; T-cell line 165-F6C, 5 μg/mL antigen, Day 76 of culture, No Antigen value 517): 463
Proliferation (luminescent ATP assay), Mean (Donor 3 COP T-Cell Lines; T-cell line 165-F6C, 10 μg/mL antigen, Day 76 of culture, No Antigen value 517): 449
Non-Canonical Peptide Non-Reactivity (Donor 4 COP T-Cell Lines; 205-1B4): GAT 631
Non-Canonical Peptide Non-Reactivity (Donor 4 COP T-Cell Lines; 205-1C4): GAT 631
Non-Canonical Peptide Non-Reactivity (Donor 4 COP T-Cell Lines; 205-1F4): GAT 631
Non-Canonical Peptide Non-Reactivity (Donor 4 COP T-Cell Lines; 205-1H3): GAT 631
Non-Canonical Peptide Non-Reactivity (Donor 4 COP T-Cell Lines; 205-1H5): GAT 631
reactivity to non-canonical GA peptides (Donor 4 COP T-Cell Lines; 205-1H7, after seven stimulations, 0, 1, 10, 30 μg/mL): not
Non-Canonical Peptide Non-Reactivity (Donor 4 COP T-Cell Lines; 205-1H7): GAT 631
Non-Canonical Peptide Non-Reactivity (Donor 4 COP T-Cell Lines; 205-1H11): GAT 631
Nonreactive T-Cell Line (Donor 4 COP T-Cell Lines; Donor 4 COP lines, stimulation with the non-canonical GA peptide): 205-1C4 (Donor 4) and 205-1F4 (Donor 4) and 205-1H3 (Donor 4) and 205-1H5 (Donor 4) and 205-1H7 (Donor 4) and 205-1H11 (Donor 4)
Reactivity (proliferation), Mean (Donor 4 COP T-Cell Lines; T-cell line 205-1B4, 1 μg/mL antigen, No Antigen 830): 843 RLU
Reactivity (proliferation), Mean (Donor 4 COP T-Cell Lines; T-cell line 205-1B4, 3 μg/mL antigen, No Antigen 830): 890 RLU
Reactivity (proliferation), Mean (Donor 4 COP T-Cell Lines; T-cell line 205-1B4, 10 μg/mL antigen, No Antigen 830): 845 RLU
Reactivity (proliferation), Mean (Donor 4 COP T-Cell Lines; T-cell line 205-1B4, 30 μg/mL antigen, No Antigen 830): 766 RLU
Reactivity (proliferation), Mean (Donor 4 COP T-Cell Lines; T-cell line 205-1C4, 1 μg/mL antigen, No Antigen 4464): 4856 RLU
Reactivity (proliferation), Mean (Donor 4 COP T-Cell Lines; T-cell line 205-1C4, 3 μg/mL antigen, No Antigen 4464): 5584 RLU
Reactivity (proliferation), Mean (Donor 4 COP T-Cell Lines; T-cell line 205-1C4, 10 μg/mL antigen, No Antigen 4464): 5666 RLU
Reactivity (proliferation), Mean (Donor 4 COP T-Cell Lines; T-cell line 205-1C4, 30 μg/mL antigen, No Antigen 4464): 5137 RLU
Proliferation (luminescent ATP assay), Mean (Donor 4 COP T-Cell Lines; 1 μg/mL antigen): 2424
Proliferation (luminescent ATP assay), Mean (Donor 4 COP T-Cell Lines; 3 μg/mL antigen): 2439
Proliferation (luminescent ATP assay), Mean (Donor 4 COP T-Cell Lines; 10 μg/mL antigen): 3035
Reactivity (proliferation), Mean (Donor 4 COP T-Cell Lines; T-cell line 205-1H5, 1 μg/mL antigen, No Antigen 749): 648 RLU
Reactivity (proliferation), Mean (Donor 4 COP T-Cell Lines; T-cell line 205-1H5, 3 μg/mL antigen, No Antigen 749): 696 RLU
Reactivity (proliferation), Mean (Donor 4 COP T-Cell Lines; T-cell line 205-1H5, 10 μg/mL antigen, No Antigen 749): 698 RLU
Reactivity (proliferation), Mean (Donor 4 COP T-Cell Lines; T-cell line 205-1H5, 30 μg/mL antigen, No Antigen 749): 669 RLU
